Assay results published in patent publication US9499570B2, “Boron containing small molecules” (priority 2010, dated 2016).
“Also recorded” adds a separate entry of the source.

Legend:
[1] = tested on: Schistosoma mansoni schistosomula; test: Schistosoma mansoni schistosomula phenotype screen in vitro; settings: for Schistosomula (juvenile infective form) worm screen phenotype 2 d / Schistosomula (juvenile infective form) worm screen phenotype 3 d / Schistosomula (juvenile infective form) worm screen phenotype 4 d / Schistosomula (juvenile infective form) worm screen phenotype 24 h: Second Set, 5 uM; for Schistosomula phenotype day 4 / Schistosomula phenotype day 6 / Schistosomula phenotype day 2: First Set; for Phenotypes caused by positive control compounds: schistosomula
Description: (§1) Puerto Rican isolates of S. mansoni using Biomphalaria glabrata snails and golden hamsters as intermediate and definitive hosts, respectively, were maintained and handled in the University of California-San Francisco Sandler Center for Tropical Medicine. Patent B. glabrata snails (6-8 weeks after exposure to 5-10 infectious miracidia) were induced to shed infective larvae (cercariae) under light stimulus into the surrounding water. Cercariae were washed in rounds of ice-cold water and concentrated through and over sieves of varying pore sizes. They were then mechanically sheared (separation of heads from tails) as described in Colley D G, et al. Exp Parasitol 1974, 35:44-51, in ice-cold Incomplete Medium 169 (as described in Basch P F. J Parasitol 1981, 67:179-185, minus FBS and antibiotics) by passing 15 times through a double headed 22-gauge syringe needle connected to two 10 mL syringes. The resulting cercarial heads (schistosomula) were separated from their tails by swirling in a petri dish. Concentrated schistosomula were added to a sterile 1.5 mL centrifuge tube and allowed to settle over ice. Schistosomula were transferred to a sterile environment and washed 4 times in Incomplete Medium 169 prior to plating.
(§2) Two sets of screening were performed. In the first set, compounds were screened against schistosomula and observations were made at 24 hours, 2 days, 3 days, 4 days, and 6 days. In the second set, compounds were screened against schistosomula with observations at 24 hours, 2 days, 3 days, and 4 days and adult worms at 7 hours, 24 hours, 4 days, and 6 days.
Plates contain 200 schistosomula/well in […] complete Basch medium and were maintained at 37° C. in a 5% CO2 atmosphere. All compounds were tested in duplicate with at least two experimental replicates. Compounds and control compounds were added to the plates using the Biomek FXp using 96-well disposable tips. Final concentration of DMSO in each well was 0.5%.
(§3) A semi-quantitative and controlled nomenclature for phenotypes that can arise as a result of compound insult to both schistosomula and adults was utilized (Abdulla M H, et al., PLoS Negl Trop Dis 2009, 3:e478). Phenotypes were recorded by visual inspection and on a flexible time basis but at least at 24 h and 4 day time-points in the case of large scale screening. […] To help eliminate bias, two screen analysts scored phenotypes ‘blind’ both to knowledge of the contents of each screening plate and the phenotypes scored by his/her colleague. Upon completing their individual assessments, each analyst's ‘hit sheet’ was then compared to derive a ‘consensus hit sheet’. Discrepancies in analysts' hit sheets were re-evaluated under the microscope to eventually make a consensus hit call.
(§4) Hyper-coiled and coiled represent a verbal description of the visual phenotype as compared to the DMSO control. The + and ++ and +++ means more of the phenotype which preceded it. The − means less of the phenotype which preceded it. Results

[2] = tested on: Schistosoma mansoni adult worms; test: Schistosoma mansoni adult worm phenotype screen in vitro; settings: for Adult worm screen phenotype 7 h / Adult worm screen phenotype 24 h / Adult worm screen phenotype 4 d / Adult worm screen phenotype 6 d*: Second Set, 5 uM; for Phenotypes caused by positive control compounds: adult worms
Description: as §1, §2
Given the delicacy and size (0.5-1.5 cm in length) of this stage all operations were performed manually by the Sandler Center. 24-well plates were set up with compound (final DMSO concentration=0.5%) containing approximately 5 pairs of worms (S. mansoni has separate sexes) in 2 mL complete Basch medium per well. Plates were maintained at 37° C. in a 5% CO2 atmosphere. All compounds were tested in duplicate with at least two experimental replicates.
as §3, §4

Brugia malayi = Brugia malayi in vitro assay, adult female worms; settings: 50 uM
Procedure: Adult female worms are shipped from TRS Labs Inc. (Nonglak Supakorndej, Lab Director, 295 Research Dr., Athens, Ga. 30605; 706-549-0764) via Fed Ex. Individual worms are shipped in 2 mls vials with RPMI on Mondays and arrive at the […] Center lab on Tuesday mornings. Individual worms are poured into each well (24-well tissue culture plates) to avoid handling worms since they are very delicate and easily broken. Transport media is removed and replaced with 0.5 mls of RPMI-1640 (25 mM HEPES, 2 g/L NaHCO3, Antibiotic/Antimycotic, 5% HI FBS). Worms are maintained in a 37° C. 5% CO2 incubator. Compounds are added directly to each duplicate well (5 ul of 5 mM for a final concentration of 50 uM). DMSO (5 ul) is used as a negative control and Ivermectin (Sigma) is used as a positive control at 100 uM/well and 20 uM/well. Adult filarial nematodes can shed/give birth to microfilarial worms (mf) during the course of the assay. Wells were reviewed for the presence of mf, and the viability of mf, by visual observation of the well on the last day of observation (Day 7). Plates are examined once a day for 4-7 days. […] If changes are observed, worms are more closely examined under a dissecting microscope.

| SMILES | Schistosomula (juvenile infective form) worm screen phenotype 2 d [1] | Schistosomula (juvenile infective form) worm screen phenotype 3 d [1] | Schistosomula (juvenile infective form) worm screen phenotype 4 d [1] | Adult worm screen phenotype 7 h [2] | Adult worm screen phenotype 24 h [2] | Adult worm screen phenotype 4 d [2] | Schistosomula phenotype day 4 [1] | Schistosomula (juvenile infective form) worm screen phenotype 24 h [1] | Schistosomula phenotype day 6 [1] | also measured |
| --- | --- | --- | --- | --- | --- | --- | --- | --- | --- | --- |
| N#Cc1ccc(Oc2ccc3c(c2)COB3O)nc1OC1CCCC1 [2-Cyclopentyloxy-6-(1-hydroxy-1,3-dihydro-benzo[c][1,2]oxaborol-5-yloxy)-nicotinonitrile] | O++, R−, and some and deg-M | O++, R−, and some and deg-M | O++, R−,; also recorded: some deg-M | O+ | O− | v, slow, sex; also recorded: sep, on sides | – | – | – | Adult worm screen phenotype 6 d* [2]: Dark, S,; also recorded: Partial D (Partial D=partial killing of worm population) |
| CC(C)OCCOc1nc(Oc2ccc3c(c2)COB3O)ccc1C#N [6-(1-hydroxy-1,3-dihydrobenzo[c][1,2]oxaborol-5-yloxy)-2-(4-isopropoxyethoxy)nicotinonitrile] | – | – | – | – | – | – | – | – | – | Presence and viability of microfilarial worms (mf) Day 7 (Brugia malayi; trial one): mf and alive; Worm activity / phenotype Day 1 (Brugia malayi; trial one): hyper-; also recorded: coiled; Worm activity / phenotype Day 3 (Brugia malayi; trial one): hyper-; also recorded: coiled; Worm activity / phenotype Day 7 (Brugia malayi; trial one): 0, and coiled; Presence and viability of microfilarial worms (mf) Day 7 (Brugia malayi; trial two): no mf and obs; Worm activity / phenotype Day 1 (Brugia malayi; trial two): hyper-; also recorded: coiled; Worm activity / phenotype Day 2 (Brugia malayi; trial two): hyper-; also recorded: coiled; Worm activity / phenotype Day 3 (Brugia malayi; trial two): 4 (4=highly active (controls)); Worm activity / phenotype Day 7 (Brugia malayi; trial two): 0, and coiled |
| N#Cc1ccc(Oc2ccc3c(c2)COB3O)nc1 [6-(1-hydroxy-1,3-dihydrobenzo[c][1,2]oxaborol-5-yloxy)nicotinonitrile] | R−, O−, and some and deg-M | O, some; also recorded: deg-M | O, some deg-M | O− | – | – | O−, and R− | R−, O− | – | – |
| COc1nc(Oc2cc3c(cc2F)B(O)OC3)ccc1C#N [6-(6-Fluoro-1-hydroxy-1,3-dihydrobenzo[c][1,2]oxaborol-5-yloxy)-2-methoxynicotinonitrile] | O+++, and R−, and some and deg-M | O+++, and some and deg-M | O+++, some; also recorded: deg-M | O++ | O++ sex sep | O+, sex sep; also recorded: males dark | – | R, O++,; also recorded: some deg-m | R O and some and partial D | Adult worm screen phenotype 6 d* [2]: Dark, Partial D |
| CC(C)OCCOc1nc(Oc2ccc3c(c2)COB3O)ccc1C#N [D140, 6-(1-Hydroxy-1,3-dihydrobenzo[c][1,2]oxaborol-5-yloxy)-2-(2-isopropoxyethoxy)nicotinonitrile, reference compound] | O+++, and R−, and some and deg-M | O+++, R, and some and deg-M | O+++, R,; also recorded: some deg-M | O++ | O++ sex sep | O, sex sep, | – | R, O++,; also recorded: some deg-m | – | – |
| CC(=O)CCCOc1nc(Oc2ccc3c(c2)COB3O)ccc1C#N [D141, 6-(1-hydroxy-1,3-dihydrobenzo[c][1,2]oxaborol-5-yloxy)-2-(4-oxopentyloxy) nicotinonitrile, reference compound] | O+++, and R−, and some and deg-M | O+++, R, and some and deg-M | O+++, R,; also recorded: some deg-M | O++, and Sex sep (Sex sep=worm pairs have separated) and (violent and motion) | O++, Sex; also recorded: sep (violent; also recorded: motion) | O++, sex; also recorded: sep on sides,; also recorded: males dark | – | R, O++,; also recorded: some deg-m | – | Adult worm screen phenotype 6 d* [2]: Dark, S,; also recorded: Partial D (Partial D=partial killing of worm population) |
| CC(C)OC(=O)c1ccc(Oc2ccc3c(c2)COB3O)nc1 [Isopropyl 6-(1-hydroxy-1,3-dihydrobenzo[c][1,2]oxaborol-5-yloxy)nicotinate] | – | – | – | – | – | – | O, R, and some and deg-m | – | O, R,; also recorded: Partial D (Partial D=partial killing of worm population) | Schistosomula phenotype day 2 [1]: O, (O=overactive); also recorded: deg-m |
| CC(=O)NCc1ccc(Oc2ccc3c(c2)COB3O)cc1 [N-[4-(1-Hydroxy-1,3-dihydro-benzo[c][1,2]oxaborol-5-yloxy)-benzy]-acetamide] | – | – | – | – | – | – | D (D=dead) | – | – | – |
| O=C(C1CCCCC1)N1CC(=O)N2CCc3ccccc3C2C1 (stereo not shown) [PZQ, reference compound] | – | – | – | – | – | – | – | – | – | Phenotypes caused by positive control compounds [1]: dose-dependent, rapid and severe phenotypes; Phenotypes caused by positive control compounds [2]: dose-dependent, rapid and severe phenotypes |
| CCCCOC(=O)c1ccc(Oc2ccc3c(c2)COB3O)nc1 [n-Butyl 6-(1-hydroxy-1,3-dihydrobenzo[c][1,2]oxaborol-5-yloxy)nicotinate] | – | – | – | – | – | – | deg-m,; also recorded: (shrunk); also recorded: O, R, | – | deg-m; also recorded: O, R, D, | Schistosomula phenotype day 2 [1]: (strong); also recorded: O, deg-m |
| CCCOC(=O)c1ccc(Oc2ccc3c(c2)COB3O)nc1 [n-Propyl 6-(1-hydroxy-1,3-dihydrobenzo[c][1,2]oxaborol-5-yloxy)nicotinate] | – | – | – | – | – | – | – | – | O, R,; also recorded: Partial D (Partial D=partial killing of worm population) | Schistosomula phenotype day 2 [1]: O+ and (shrunk) |
| O=C(Nc1ccc([N+](=O)[O-])cc1Cl)c1cc(Cl)ccc1O [niclosamide, reference compound] | – | – | – | – | – | – | – | – | – | Phenotypes caused by positive control compounds [1]: dose-dependent, rapid and severe phenotypes; Phenotypes caused by positive control compounds [2]: dose-dependent, rapid and severe phenotypes |
| O=C(Nc1ccc(Oc2ccc(Cl)cc2)c(Cl)c1)c1cc(I)cc(I)c1O [rafoxanide, reference compound] | – | – | – | – | – | – | – | – | – | Phenotypes caused by positive control compounds [1]: dose-dependent, rapid and severe phenotypes; Phenotypes caused by positive control compounds [2]: dose-dependent, rapid and severe phenotypes |
